Experimental data taken from patent publication US20080262000A1, “5-Alkoxyalkyl-6-alkyl-7-Aminoazolopyrimidines, Process for Their Preparation, Their Use for Controlling Harmful Fungi, and Compositions Comprising Them” (BASF Aktiengesellschaft, priority 2005, published 2008).
Read-outs that look alike come from different tables or passages of the source.

Test system: Phytophthora infestans
Format: in vivo
Conditions: potted tomato plants, untreated plants 90% infestation
[1] = 1 day of protective treatment, 250 ppm
[2] = 3 days of protective treatment, 250 ppm

Row | Compound | infestation [1] [%] | infestation (1 day of protective treatment, 16 ppm) [%] | infestation [2] [%]
1 | CCCCCCCCOCCCc1c(COC)nc2ncnn2c1N [I-4] | 1 | – | –
2 | CCCCCCCCc1c(C)nc2ncnn2c1N [comparative compound A] | – | 70 | 90
3 | CCCCCCCCOCCCc1c(CCC)nc2ncnn2c1N [comparative compound B] | 90 | – | 90
